Results on 19 compounds are retold here after US10329294B2, “Pyrazolopyrimidine inhibitors of IRAK4 activity” (MERCK SHARP & DOHME CORP., priority 2015, dated 2019).

pIC50: −log10 of the molar value. Counter-ions that a name gives are not always drawn.

The assay concerns the target IRAK4 (Homo sapiens (Human), UniProt Q9NWZ3). Kind of assay: IRAK4 Kinase Assay. As to conditions: IMAP fluorescence polarization, 0.5 nM GST tagged IRAK4, 100 μM ATP, 30 minutes at 25° C.; read-out: IRAK4 IC50. Type of assay: biochemical.

IRAK4, sequence (Q9NWZ3 whole entry): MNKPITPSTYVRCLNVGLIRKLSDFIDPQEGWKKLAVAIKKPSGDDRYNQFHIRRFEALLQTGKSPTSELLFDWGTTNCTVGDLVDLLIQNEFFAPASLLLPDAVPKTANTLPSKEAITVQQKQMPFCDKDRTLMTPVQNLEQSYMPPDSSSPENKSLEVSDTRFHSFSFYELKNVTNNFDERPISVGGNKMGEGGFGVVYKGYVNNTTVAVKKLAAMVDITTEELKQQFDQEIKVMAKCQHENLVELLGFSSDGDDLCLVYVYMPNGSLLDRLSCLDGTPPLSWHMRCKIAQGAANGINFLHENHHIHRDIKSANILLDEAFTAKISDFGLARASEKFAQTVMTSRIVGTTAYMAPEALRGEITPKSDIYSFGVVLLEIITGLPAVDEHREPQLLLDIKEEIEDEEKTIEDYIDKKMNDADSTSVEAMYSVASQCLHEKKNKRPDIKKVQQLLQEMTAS

For orientation: pIC50 means the negative decadic logarithm of the IC50, by convention in mol/L. On to `Cn1cc(NC(=O)c2cnn3ccc(N[C@H]4CNC[C@@H](F)C4)nc23)c(C(F)(F)F)n1` [Example 257, 5-{[(3R,5S)-5-fluoropiperidin-3-yl]amino}-N-[1-methyl-3-(trifluoromethyl)-1H-pyrazol-4-yl]pyrazolo[1,5-a]pyrimidine-3-carboxamide hydrochloride], for which the negative logarithm of the IC50 (pIC50) was 9.22. `Cn1cc(NC(=O)c2cnn3ccc(N4C[C@H]5CN[C@H](C5)C4)nc23)c(C(F)F)n1` (single isomer, unassigned) [Example 184, 5-[(1S,5S)- or (1R,5R)-3,6-diazabicyclo[3.2.1]oct-3-yl]-N-[3-(difluoromethyl)-1-methyl-1H-pyrazol-4-yl]pyrazolo[1,5-a]pyrimidine-3-carboxamide trifluoroacetate]: the pIC50 was 7.33.

On to `Cn1cc(NC(=O)c2cnn3ccc(N4CC5CCC4CN5)nc23)c(C(F)(F)F)n1` (stereo not shown) [Example 11, 5-(2,5-diazabicyclo[2.2.2]oct-2-yl)-N-[1-methyl-3-(trifluoromethyl)-1H-pyrazol-4-yl]pyrazolo[1,5-a]pyrimidine-3-carboxamide hydrochloride], for which the pIC50 was 7.55. On to `O=C(Nc1cn(CC(F)F)nc1C(F)(F)F)c1cnn2ccc(N[C@@H]3CCCC[C@@H]3O)nc12` [Example 63, N-[1-(2,2-difluoroethyl)-3-(trifluoromethyl)-1H-pyrazol-4-yl]-5-{[(1R,2S)-2-hydroxycyclohexyl]amino} pyrazolo[1,5-a]pyrimidine-3-carboxamide trifluoroacetate], for which the pIC50 was 7.42.

Regarding `CC(C)n1cc(NC(=O)c2cnn3ccc(N[C@@H]4CCCC(F)(F)[C@@H]4N)nc23)c(C(F)(F)F)n1` [Example 56, 5-{[(1R,2R)-2-amino-3,3-difluorocyclohexyl]amino}-N-[1-(1-methylethyl)-3-(trifluoromethyl)-1H-pyrazol-4-yl]pyrazolo[1,5-a]pyrimidine-3-carboxamide trifluoroacetate], the pIC50 was 6.20. As to `N[C@H]1CCCC[C@H]1Nc1ccn2ncc(C(=O)Nc3c[nH]nc3C(F)(F)F)c2n1` [Example 301, 5-{[(1R,2S)-2-aminocyclohexyl]amino}-N-[3-(trifluoromethyl)-1H-pyrazol-4-yl]pyrazolo[1,5-a]pyrimidine-3-carboxamide trifluoroacetate], the pIC50 is 9.10. On to `O=C(Nc1cn(CC(F)(F)F)nc1C(F)(F)F)c1cnn2ccc(N3CC4CCC3CN4)nc12` (stereo not shown) [Example 58, 5-(2,5-diazabicyclo[2.2.2]oct-2-yl)-N-[1-(2,2,2-trifluoroethyl)-3-(trifluoromethyl)-1H-pyrazol-4-yl]pyrazolo[1,5-a]pyrimidine-3-carboxamide trifluoroacetate], for which the pIC50 was 6.57.

`O=C(Nc1ccccc1Cl)c1cnn2ccc(N[C@@H]3CCCC[C@@H]3O)nc12` [Example 194, N-(2-chlorophenyl)-5-{[(1R,2S)-2-hydroxycyclohexyl]amino} pyrazolo[1,5-a]pyrimidine-3-carboxamide]: the pIC50 is 5.76.

As to `Cn1cc(NC(=O)c2cnn3ccc(N4C[C@@H]5CN[C@@H](C5)C4)nc23)c(C(F)(F)F)n1` (single isomer, unassigned) [Example 224, 5-[(1S,5S)- or (1R,5R)-3,6-diazabicyclo[3.2.1]oct-3-yl]-N-[1-methyl-3-(trifluoromethyl)-1H-pyrazol-4-yl]pyrazolo[1,5-a]pyrimidine-3-carboxamide], the pIC50 is 7.15.

Take `Cn1cc(NC(=O)c2cnn3ccc(N4CCN5CCC4CC5)nc23)c(C(F)(F)F)n1` [Example 40, 5-(1,4-diazabicyclo[3.2.2]non-4-yl)-N-[1-methyl-3-(trifluoromethyl)-1H-pyrazol-4-yl]pyrazolo[1,5-a]pyrimidine-3-carboxamide trifluoroacetate]: the pIC50 was 6.30.

With `Cn1cc(NC(=O)c2cnn3ccc(N4C[C@@H]5CNC[C@H]4C5)nc23)c(C(F)F)n1` (single isomer, unassigned) [Example 239, 5-[(1S,5R)- or (1R,5S)-3,6-diazabicyclo[3.2.1]oct-6-yl]-N-[3-(difluoromethyl)-1-methyl-1H-pyrazol-4-yl]pyrazolo[1,5-a]pyrimidine-3-carboxamide], the pIC50 was 8.52. Consider `O=C(Nc1ccsc1Cl)c1cnn2ccc(N[C@@H]3CCCC[C@@H]3O)nc12` [Example 185, N-(2-chlorothiophen-3-yl)-5-{[(1R,2S)-2-hydroxycyclohexyl]amino} pyrazolo[1,5-a]pyrimidine-3-carboxamide], for which the pIC50 was 5.80. For the compound `O=C(Nc1ccsc1Br)c1cnn2ccc(N[C@@H]3CCCC[C@@H]3O)nc12` [Example 196, N-(2-bromothiophen-3-yl)-5-{[(1R,2S)-2-hydroxycyclohexyl]amino} pyrazolo[1,5-a]pyrimidine-3-carboxamide trifluoroacetate], the pIC50 is 5.58. As to `O=C(Nc1cn(C(F)F)nc1C(F)(F)F)c1cnn2ccc(N[C@@H]3CCCC[C@@H]3O)nc12` [Example 72, N-[1-(difluoromethyl)-3-(trifluoromethyl)-1H-pyrazol-4-yl]-5-{[(1R,2S)-2-hydroxycyclohexyl]amino} pyrazolo[1,5-a]pyrimidine-3-carboxamide trifluoroacetate], the pIC50 was 6.85.

Take `Cn1cc(NC(=O)c2cnn3ccc(N4C[C@@H]5CC[C@H]4CN5)nc23)c(C(F)(F)F)n1` (single isomer, unassigned) [Example 78, 5-[(1S,4S)- or (1R,4R)-2,5-diazabicyclo[2.2.2]oct-2-yl]-N-[1-methyl-3-(trifluoromethyl)-1H-pyrazol-4-yl]pyrazolo[1,5-a]pyrimidine-3-carboxamide trifluoroacetate]: the pIC50 was 7.36. Turning to `COCCc1nn(C)cc1NC(=O)c1cnn2ccc(N[C@@H]3CCCC[C@@H]3N)nc12` [Example 283, 5-{[(1R,2S)-2-aminocyclohexyl]amino}-N-[3-(2-methoxyethyl)-1-methyl-1H-pyrazol-4-yl]pyrazolo[1,5-a]pyrimidine-3-carboxamide trifluoroacetate], the pIC50 was 7.12. Take `Cn1cc(NC(=O)c2cnn3ccc(N4CCC(F)(F)[C@@H](N)C4)nc23)c(C(F)(F)F)n1` (single isomer, unassigned) [Example 188, 5-[(4R)- or (4S)-(3-amino-4,4-difluoropiperidin-1-yl)-N-[1-methyl-3-(trifluoromethyl)-1H-pyrazol-4-yl]pyrazolo[1,5-a]pyrimidine-3-carboxamide trifluoroacetate]: the pIC50 was 7.22.

As to `Cn1cc(NC(=O)c2cnn3ccc(N4C5CNCC4C5)nc23)c(C(F)(F)F)n1` [Example 214, 5-(3,6-diazabicyclo[3.1.1]hept-6-yl)-N-[1-methyl-3-(trifluoromethyl)-1H-pyrazol-4-yl]pyrazolo[1,5-a]pyrimidine-3-carboxamide], the pIC50 was 7.42. Turning to `Cn1cc(NC(=O)c2cnn3ccc(N4CC[C@H](F)[C@H](N)C4)nc23)c(C(F)F)n1` (single isomer, unassigned) [Example 179, 5-[(3S,4R)- or (3R,4S)-3-amino-4-fluoropiperidin-1-yl]-N-[3-(difluoromethyl)-1-methyl-1H-pyrazol-4-yl]pyrazolo[1,5-a]pyrimidine-3-carboxamide trifluoroacetate], the pIC50 is 9.30.
